From patent US4774242A, “Tetrahydrobenz(c,d)indoles and pharmaceutical use” (Roussel Uclaf, priority 1986, dated 1988)

Tests used:
dopaminergic receptors = target: T1, dopaminergic receptors (Rattus norvegicus, UniProt P61169); experiment: Affinities for the dopaminergic receptors (displacement of spiroperidol 3H, rat striated bodies); assay type: binding; details: rat striatum, relative to haloperidol = 100, from concentrations inhibiting 50% of specific fixation
T1 construct: Striated bodies removed from the brains of 6 male rats; from tissue; host or cells: rat striatum (striated bodies), membrane fraction
Experimental: Striated bodies removed from the brains of 6 male rats weighing an average of 150 g were homogenized at one-twentieth (weight/volume) in 0.32M sucrose. After centrifuging the homogenized mixture at 1000 g for 10 minutes at 0° C., the supernatant was centrifuged at 30,000 g for 15 minutes at +4° C. The residue was taken up in 25 ml of Tris HCl 50 mM pH 7.7 buffer and centrifuged at 30,000 g for 15 minutes at +4° C. The new residue was taken up in 50 ml of Krebs Tris HCl pH 7.3 buffer and the suspension was pre-incubated for 10 minutes at 37° C. Then it was incubated for 29 minutes on a water-bath at +37° C. in the presence of spiroperidol ^3 H alone, with an excess of haloperidol, and with increasing concentrations of the test product. The incubated suspensions were filtered on Whatman GF/C and the filters were washed three times with 5 ml of Tris HCl 50 mM buffer. The radioactivity of the filters is measured by liquid scintillation. The non-specific fixation was determined in parallel by incubation of spiroperidol ^3 H in the presence of an excess of haloperidol. The affinity of the product tested for the dopaminergic receptors is given relative to haloperidol as reference product,
CD=concentration of cold haloperidol inhibiting 50% of the specific fixation of the spiroperidol ^3 H,
CX=concentration of the product under test inhibiting 50% of the specific fixation of the piroperidol ^3 H.
The relative affinity was determined by the relation: [formula]

[1] = Study of the acute toxicity (LD0); assay type: in vivo; details: oral, mice, maximal dose not causing any mortality over 8 days
Experimental: The lethal doses LD0 of the different compounds tested was evaluated after oral administration in mice and the maximal dose not causing any mortality over 8 days was called the LD0.

arterial pressure = experiment: Determination of hypotensive activity (carotid arterial pressure, anesthetized rats); assay type: in vivo, male rats of WISTAR strain; details: 0.01 mg/kg intravenous, anesthetized male Wistar rats
Experimental: The hypotensive activity was studied in male rats of WISTAR strain weighing about 300 g and anesthetized with nembutal (50 mg/kg by intraperitoneal route). The test product was administered intravenously in the jugular vein. The arterial pressure in the carotid was measured before and after administration of the test product. The following table indicates the variations expressed in percentage of the arterial pressure after administration of the product under test relative to the initial control arterial pressure.

enolase γγ = experiment: Antianoxic activity: enolase test (kainic acid lesions); assay type: in vivo; details: intraperitoneal, upwards of a dose of 1 mg/kg, 1 hour after kainic acid, mice
Experimental: Suffering cerebral cells release enolase γγ which is a specific indicator of neuronal lesions. In the test, the lesions were carried out in mice by subcutaneous injection of 35/mg/kg of kainic acid.

T1 sequence (P61169 whole entry): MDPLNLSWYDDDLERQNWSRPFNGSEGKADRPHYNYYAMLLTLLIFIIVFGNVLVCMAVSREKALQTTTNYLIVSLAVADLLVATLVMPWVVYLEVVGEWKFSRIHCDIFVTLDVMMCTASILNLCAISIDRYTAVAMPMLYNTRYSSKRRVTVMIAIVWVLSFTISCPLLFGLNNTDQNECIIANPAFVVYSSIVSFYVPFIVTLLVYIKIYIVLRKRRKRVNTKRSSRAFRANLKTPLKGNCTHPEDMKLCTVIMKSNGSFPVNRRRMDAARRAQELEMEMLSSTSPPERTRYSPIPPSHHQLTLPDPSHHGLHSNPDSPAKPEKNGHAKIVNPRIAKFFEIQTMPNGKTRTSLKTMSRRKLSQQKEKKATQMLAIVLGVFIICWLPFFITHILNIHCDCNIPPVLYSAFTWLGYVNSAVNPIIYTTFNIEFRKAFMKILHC

c1cc2c3c(c[nH]c3c1)[C@H]1OCCN[C@@H]1C2 (relative stereo) [Example 2, (dl-trans) 2,6,6a,7,8,9,10a-hexahydro-6H-indol-[4,3-g,h]-1,4-benzoxazine]
Relative affinity (Haloperidol = 100) (dopaminergic receptors): 0.09
LD0 [1]: > 200 mg/kg

CCCN1CCO[C@@H]2c3c[nH]c4cccc(c34)C[C@H]21 (relative stereo) [Example 3, (dl-trans) 2,6a,7,8,9,10a-hexahydro-7-propyl-6H-indol-[4,3-g,h]-1,4-benzoxazine]
Relative affinity (Haloperidol = 100) (dopaminergic receptors): 13
% Variations of the arterial pressure 5 minutes after administration (arterial pressure): < -40%
seral concentration of enolase (enolase γγ): reduced the seral concentration of enolase
LD0 [1]: 100 mg/kg

CN1CCO[C@@H]2c3c[nH]c4cccc(c34)C[C@H]21 (relative stereo) [Example 4, (d,l trans) 2,6a,7,8,9,10a-hexahydro-7-methyl 6H-indol-[4,3-g,h]-1,4-benzoxazine]
Relative affinity (Haloperidol = 100) (dopaminergic receptors): 0.4
